Measurements: paper PMC6328288 (Journal of Medicinal Chemistry, 2018)

How the values were obtained:
human CCR1 [1] = molecular target: T1, human CCR1 (Homo sapiens, UniProt P32246); assay: [3H]-CCR2-RA-[R] displacement binding assay on U2OS-CCR1 membranes; settings: for displacement of [3H]-CCR2-RA-[R] from CCR1 (in words): concentration-dependent
T1 sequence (P32246 1-355): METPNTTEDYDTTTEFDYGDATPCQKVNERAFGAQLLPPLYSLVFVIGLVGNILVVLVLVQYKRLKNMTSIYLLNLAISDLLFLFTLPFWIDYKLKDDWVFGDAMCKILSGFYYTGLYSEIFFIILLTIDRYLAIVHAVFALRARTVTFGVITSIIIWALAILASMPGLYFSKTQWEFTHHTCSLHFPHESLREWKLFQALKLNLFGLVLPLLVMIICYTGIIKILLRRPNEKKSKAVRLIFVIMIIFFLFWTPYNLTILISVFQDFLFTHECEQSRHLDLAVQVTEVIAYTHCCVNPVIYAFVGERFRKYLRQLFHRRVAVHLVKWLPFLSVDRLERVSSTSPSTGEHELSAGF

human CCR2 [2] = molecular target: T2, human CCR2 (Homo sapiens, UniProt P41597); assay: [3H]-CCR2-RA-[R] displacement binding assay on U2OS-CCR2 membranes; settings: for displacement at 1 μM (%) / pKi ± SEM: CCR2; for displacement at 1 μM (%): [3H]-CCR2-RA-[R] displacement by 1 μM compound, mean of two experiments; for pKi ± SEM: [3H]-CCR2-RA-[R] binding, U2OS membranes, 25 °C
T2 sequence (P41597 1-360 isoform P41597-2): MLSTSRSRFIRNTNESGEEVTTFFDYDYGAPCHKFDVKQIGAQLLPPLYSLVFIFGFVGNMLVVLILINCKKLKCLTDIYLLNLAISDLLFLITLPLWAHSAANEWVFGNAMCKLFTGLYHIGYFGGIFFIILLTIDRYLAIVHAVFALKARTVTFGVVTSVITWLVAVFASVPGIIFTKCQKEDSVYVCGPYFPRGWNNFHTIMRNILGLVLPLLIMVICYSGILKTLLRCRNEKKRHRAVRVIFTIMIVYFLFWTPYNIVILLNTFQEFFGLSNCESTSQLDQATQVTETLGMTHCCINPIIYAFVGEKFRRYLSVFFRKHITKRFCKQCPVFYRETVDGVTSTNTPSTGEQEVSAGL

human CCR1 [3] = molecular target: T1, human CCR1; assay: [35S]GTPγS binding assay on U2OS-CCR1 membranes; assay type: biochemical; settings: for Hill slope, CCR1: CCL3-induced, 8 nM CCL3
human CCR2 [4] = molecular target: T2, human CCR2; assay: [35S]GTPγS binding assay on U2OS-CCR2 membranes; assay type: biochemical; settings: for Hill slope, CCR2: CCL2-induced, 20 nM CCL2
human CCR1 [5] = molecular target: T1, human CCR1; assay: Inhibition of basal [35S]GTPγS binding in absence of CCL3 in U2OS-CCR1; assay type: biochemical; settings: for fold higher potency as inverse agonist than as antagonist: CCR1, absence versus presence of CCL3; for fold difference between functional and binding assays: CCR1, [35S]GTPγS potency (absence or presence of CCL3) versus binding affinity
[6] = CCR1, [3H]-CCR2-RA-[R] binding, U2OS membranes, 25 °C

C[C@@H]1CN(Cc2ccc(F)cc2)CCN1C(=O)COc1ccc(Cl)cc1NC(N)=O [BX471]
[3H]-CCR2-RA-[R] specific binding in presence of compound (absence = 100%) (human CCR1 [1]; 10 μM BX471, 6 nM radioligand, U2OS-CCR1): 116 ± 2% | [3H]-CCR2-RA-[R] binding enhanced up to (human CCR1 [1]; U2OS-CCR1, increasing concentrations): up to 120% | displacement of [3H]-CCR2-RA-[R] from CCR1 (in words) (human CCR1 [1]; U2OS-CCR1): not able to displace

CC(=O)C1=C(O)C(=O)N(c2ccc(C)cc2)C1c1ccc(C)cc1 (stereo not shown) [Compound 10, 4-Acetyl-3-hydroxy-5-(4-methylphenyl)-1-(4-methylphenyl)-1,5-dihydro-2H-pyrrol-2-one]
displacement at 1 μM (%) (human CCR2 [2]): 36% (42, 31)

COc1ccc(C2C(C(C)=O)=C(O)C(=O)N2c2ccc(C)cc2)cc1 (stereo not shown) [Compound 11, 4-Acetyl-3-hydroxy-5-(4-methoxyphenyl)-1-(4-methylphenyl)-1,5-dihydro-2H-pyrrol-2-one]
displacement at 1 μM (%) (human CCR2 [2]): 5% (5, 5)

CC(=O)C1=C(O)C(=O)N(c2ccc(C)cc2)C1c1cccc(C)c1 (stereo not shown) [Compound 14, 4-Acetyl-3-hydroxy-5-(3-methylphenyl)-1-(4-methylphenyl)-1,5-dihydro-2H-pyrrol-2-one]
displacement at 1 μM (%) (human CCR2 [2]): 11% (14, 8)

COc1cccc(C2C(C(C)=O)=C(O)C(=O)N2c2ccc(C)cc2)c1 (stereo not shown) [Compound 15, 4-Acetyl-3-hydroxy-5-(3-methoxyphenyl)-1-(4-methylphenyl)-1,5-dihydro-2H-pyrrol-2-one]
displacement at 1 μM (%) (human CCR2 [2]): 0% (3, −3)

CCC(=O)C1=C(O)C(=O)N(c2ccc(C)cc2)C1C1CCCCC1 (stereo not shown) [Compound 18, 5-Cyclohexyl-3-hydroxy-4-propionyl-1-(4-methylphenyl)-1,5-dihydro-2H-pyrrol-2-one]
pKi ± SEM (human CCR1 [1]; [6]): 7.52 ± 0.01

Cc1ccc(N2C(=O)C(O)=C(C(=O)C3CC3)C2C2CCCCC2)cc1 (stereo not shown) [Compound 22, 5-Cyclohexyl-4-(cyclopropanecarbonyl)-3-hydroxy-1-(4-methylphenyl)-1,5-dihydro-2H-pyrrol-2-one]
selectivity for CCR1 over CCR2 (human CCR1 [1]; from binding affinities): 8 fold

CCOC(=O)C1=C(O)C(=O)N(c2ccc(C)cc2)C1C1CCCCC1 (stereo not shown) [Compound 24, Ethyl 2-Cyclohexyl-4-hydroxy-5-oxo-1-(4-methylphenyl)-2,5-dihydro-1H-pyrrole-3-carboxylate]
displacement at 1 μM (%) (human CCR2 [2]): 31% (36, 26)

CC(=O)C1=C(O)C(=O)N(c2ccc(Cl)cc2)C1C1CCCCC1 (stereo not shown) [Compound 30, 4-Acetyl-1-(4-chlorophenyl)-5-cyclohexyl-3-hydroxy-1,5-dihydro-2H-pyrrol-2-one]
Ki (human CCR2 [2]): ~0.02 µM | pKi ± SEM (human CCR2 [2]): 7.73 ± 0.08

CC(=O)C1=C(O)C(=O)N(c2ccc(Br)cc2)C1C1CCCCC1 (stereo not shown) [Compound 31, 4-Acetyl-1-(4-bromophenyl)-5-cyclohexyl-3-hydroxy-1,5-dihydro-2H-pyrrol-2-one]
Ki (human CCR2 [2]): ~0.02 µM

CC(=O)C1=C(O)C(=O)N(c2ccc(Br)cc2F)C1C1CCCCC1 (stereo not shown) [Compound 39, 4-Acetyl-1-(4-bromo-2-fluorophenyl)-5-cyclohexyl-3-hydroxy-1,5-dihydro-2H-pyrrol-2-one]
Hill slope, CCR1 (human CCR1 [3]): –0.62 ± 0.05 | Hill slope, CCR2 (human CCR2 [4]): –0.94 ± 0.18 | fold higher potency as inverse agonist than as antagonist (human CCR1 [5]): 3 fold

CC(=O)C1=C(O)C(=O)N(c2ccc(C)c(C)c2)C1C1CCCCC1 (stereo not shown) [Compound 40, 4-Acetyl-5-cyclohexyl-1-(3,4-dimethylphenyl)-3-hydroxy-1,5-dihydro-2H-pyrrol-2-one]
pKi ± SEM (human CCR1 [1]; [6]): 7.37 ± 0.03 | pKi ± SEM (human CCR2 [2]): 7.75 ± 0.02

CC(=O)C1=C(O)C(=O)N(c2ccc(Cl)c(C)c2)C1C1CCCCC1 (stereo not shown) [Compound 41, 4-Acetyl-1-(4-chloro-3-methylphenyl)-5-cyclohexyl-3-hydroxy-1,5-dihydro-2H-pyrrol-2-one]
Hill slope, CCR1 (human CCR1 [3]): –0.72 ± 0.08 | Hill slope, CCR2 (human CCR2 [4]): –0.88 ± 0.13 | fold higher potency as inverse agonist than as antagonist (human CCR1 [5]): ~10 fold

O=C(C1=C(O)C(=O)N(c2ccc(Br)cc2F)C1C1CCCCC1)C1CC1 (stereo not shown) [Compound 43, 1-(4-Bromo-2-fluorophenyl)-5-cyclohexyl-4-(cyclopropanecarbonyl)-3-hydroxy-1,5-dihydro-2H-pyrrol-2-one]
Hill slope, CCR1 (human CCR1 [3]): –0.73 ± 0.02 | Hill slope, CCR2 (human CCR2 [4]): –0.80 ± 0.13 | fold difference between functional and binding assays (human CCR1 [5]): more than 130 fold | pKi ± SEM (human CCR2 [2]): 7.82 ± 0.04

O=C(C1=C(O)C(=O)N(c2ccc(Br)cc2F)C1C1CCCCC1)c1ccccc1 (stereo not shown) [Compound 44, 4-Benzoyl-1-(4-bromo-2-fluorophenyl)-5-cyclohexyl-3-hydroxy-1,5-dihydro-2H-pyrrol-2-one]
pKi ± SEM (human CCR1 [1]; [6]): 7.56 ± 0.04

O=C(C1=C(O)C(=O)N(c2ccc(Br)cc2F)C1c1cccc(Br)c1)C1CC1 (stereo not shown) [Compound 45, 1-(4-Bromo-2-fluorophenyl)-5-(3-bromophenyl)-4-(cyclopropanecarbonyl)-3-hydroxy-1,5-dihydro-2H-pyrrol-2-one]
Hill slope, CCR1 (human CCR1 [3]): –0.93 ± 0.01 | Hill slope, CCR2 (human CCR2 [4]): –1.20 ± 0.08 | fold difference between functional and binding assays (human CCR1 [5]): more than 130 fold

CC(=O)C1=C(O)C(=O)N(c2ccc(Br)cc2F)C1c1cccc(Br)c1 (stereo not shown) [Compound 46, 4-Acetyl-1-(4-bromo-2-fluorophenyl)-5-(3-bromophenyl)-3-hydroxy-1,5-dihydro-2H-pyrrol-2-one]
pKi ± SEM (human CCR1 [1]; [6]): 7.19 ± 0.02

COC(=O)c1c(-c2ccno2)[nH]c(=S)n1CCCc1ccc(F)c(F)c1 [JNJ-27141491, (S)-3-[3,4-difluorophenyl)-propyl]-5-isoxazol-5-yl-2-thioxo-2,3-dihydro-1H-imidazole-4-carboxyl acid methyl ester]
Ki (human CCR1 [1]; [6]): 0.138 µM | pKi ± SEM (human CCR1 [1]; [6]): 6.9 ± 0.06 | displacement of [3H]-CCR2-RA-[R] from CCR1 (in words) (human CCR1 [1]; U2OS-CCR1): fully displaced

CCL2: chemokine ligand activating CCR2, purchased from PeproTech
pEC50, stimulation of [35S]GTPγS binding (human CCR2 [4]; U2OS-CCR2): 8.3 ± 0.09 | EC50 (human CCR2 [4]; read-out: potency, stimulation of [35S]GTPγS binding, U2OS-CCR2): 0.005 µM

CCL3: chemokine ligand activating CCR1, purchased from PeproTech
pEC50, stimulation of [35S]GTPγS binding (human CCR1 [3]; U2OS-CCR1): 8.9 ± 0.06 | EC50 (human CCR1 [3]; read-out: potency, stimulation of [35S]GTPγS binding, U2OS-CCR1): 0.0013 µM
